Measurements from publication PMC4145669, “The structure, function and properties of sirohaem decarboxylase - an enzyme with structural homology to a transcription factor family that is part of the alternative haem biosynthesis pathway” (Molecular Microbiology, 2014).
Like-named read-outs stand apart in the source and are kept apart here.

Biological target: T1, D. desulfuricans AhbA/B (sirohaem decarboxylase) (Desulfovibrio desulfuricans, UniProt B8J364+B8J3A4)
T1 construct: gene Ddes_0286; full-length AhbA (untagged) and AhbB with N-terminal hexa-His tag (kept), coexpressed in E. coli; heterodimer, 40 kDa by gel filtration
T1 sequence (B8J364 1-173): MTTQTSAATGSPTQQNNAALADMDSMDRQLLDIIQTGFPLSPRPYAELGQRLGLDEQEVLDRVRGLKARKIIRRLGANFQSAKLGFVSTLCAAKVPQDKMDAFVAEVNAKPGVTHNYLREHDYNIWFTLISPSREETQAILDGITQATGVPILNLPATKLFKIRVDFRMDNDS
T1 sequence (B8J3A4 1-159): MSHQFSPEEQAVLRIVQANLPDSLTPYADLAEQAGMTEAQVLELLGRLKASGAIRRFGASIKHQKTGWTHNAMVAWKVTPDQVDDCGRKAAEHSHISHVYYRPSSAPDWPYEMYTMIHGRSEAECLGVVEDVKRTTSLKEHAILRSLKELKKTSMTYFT
Experiment: anaerobic stopped assay, MS quantification, global fit
Format: biochemical
Details: competitive model of both substrates and product, single active site, 23 μM sirohaem, 2.3 μM enzyme

Substance: sirohaem [SH]
- Km (read-out: Km1): 11.7 ± 3.36 µM

Substance: monodecarboxysirohaem [MDSH]
- Km (intermediate formed in situ from sirohaem, read-out: Km2): 9.94 ± 1.19 µM
